# Laboratory results reported in patent US5573772A, “Methods for protecting tissues and organs from ischemic damage” (priority 1994, dated 1996).
# Key:
# rabbit heart = experiment: Infarct size in isolated rabbit hearts, A3-receptor mediation of preconditioning, Example 3; details: BW A1433 200 nM + PC
# Protocol: New Zealand white rabbits of either sex, between 1.4-2.4 kg, were anesthetized with intravenous sodium pentobarbital (30 mg/kg). The neck was opened and a tracheotomy was performed. The rabbits were ventilated with 100% oxygen via a positive pressure respirator (MD industries, Mobile, Ala.). Ventilation rate was 30-35 breaths per minute, and tidal volume was approximately 15 ml. A left thoracotomy was performed in the fourth intercostal space and pericardium was opened to expose the heart. A 2-0 silk suture with an RB taper needle was passed around a branch of the left coronary artery, and the end of the silk were threaded through a small vinyl tube to form a snare. The heads were quickly excised and mounted on a Langendorff apparatus and perfused at constant pressure with Krebs buffer containing (in mM) 118.5 NaCl, 4.7 KCl, 1.2 MgSO4, 1.2 K2 PO4, 24.3 NaHCO3, 2.5 CaCl2 and 10 glucose. […] The temperature of the perfusate was maintained at 37° C. The perfusion pressure was kept at 75 mm Hg. Pacing electrodes were placed on the right atrium and all hearts were paced at 200 beats/minute with pulses of 5 volts and 4 msec duration to keep the heart rate constant. A fluid-filled latex balloon connected to a transducer via PE240 tubing was inserted into the left ventricle. Balloon volume was adjusted to set the left ventricular diastolic pressure at 10 mm Hg at the beginning of the experiment. Total coronary artery flow was measured by timed collection of buffer from the chamber into a graduated cylinder. Regional ischemia was effected by pulling the snare tight and clamping the tube with a hemostat. Global ischemia was performed by clamping the inflow tubing of the Langendorff apparatus. Reperfusion was achieved by releasing the restriction. All hearts were allowed to equilibrate for 20 minutes before the experiments were started. Heart rate (HR), coronary flow (CF) and left ventricular developed pressure (LVDP) were recorded at the point just before and at the end of each treatment with the pacing momentarily turned off. […] The hearts were removed from the Langendorff apparatus, weighed and then frozen. The hearts were cut into 2 mm transverse slices. The slices were thawed and incubated in 1% triphenyl tetrazolium chloride (TTC) in pH 7.4 buffer for 20 minutes at 37° C. TTC reacts with NADH and dehydrogenase enzymes and stains all tissue still having them to a deep red color. […] After staining, the area of infarcted tissue (TTC negative tissue) and the risk zone (area lacking fluorescence under ultraviolet light) in each slice were traced. The area of infarct and risk zone were determined by planimetry of the tracing. The volume of infarcted myocardium and myocardium at risk was then calculated by multiplying the planimetered areas by the slice thickness. The methods utilized in this example are identical to those described in Example 1. All hearts received 30 minutes of regional ischemia as described in Example 1. The control group (n=8) hearts received only 30 minutes of ischemia. Preconditioned (PC) hearts (n=10) received 5 minutes of global ischemia and 10 minutes of reperfusion prior to the regional ischemia. Adenosine (ADO) treated hearts (n=6) received 10 μM adenosine for 5 minutes prior to regional ischemia. APNEA treated hearts (n=6) received 65 μM APNEA for 5 minutes prior to regional ischemia. In groups receiving the nonselective adenosine blocker, 8-SPT, the blocker was included in the perfusate for 15 minutes at 100 μM starting 5 minutes before the exposure of ADO (ADO-SPT group, n=6), or APNEA (APNEA-SPT group, n=6 ) or 5 minutes before and after 5 minutes of preconditioning ischemia (PC-SPT group, n=5). […] For the PC-BW group (n=5), the A3-receptor antagonist, BW A1433, [Linden J, et al., Molecular Pharmacology 44:524-532 (1993)], was administered at a dose of 200 nM in the perfusate for 5 minutes before and 5 minutes after PC ischemia.
# heart = details: intercoronarily infused before an ischemic insult; cited from earlier work
# [1] = tested on: human A3 adenosine receptor; experiment: A3 adenosine receptor binding assay, [125I]-ABA displacement on CHO cell membranes, Example 5
# Protocol: Chinese hamster ovary (CHO) cells, obtained from ATCC, expressing the cloned human A3 adenosine receptor [for example, 5 L cells or a mutagenized A3 adenosine receptor (e.g., A3K2)] were grown under standard cell culture conditions and harvested by mechanical agitation in cell culture medium. All further procedures were carried out at 4° C. The cells were disrupted using a Polytron and the resulting cell membranes collected by centrifugation at 50,000 g for 20 minutes. The pellet was suspended in 10 mM Tris-HCl buffer, pH 7.4, (10^6 cells/mL) using the Polytron and centrifuged at 50,000 g for 20 minutes. […]
# For the binding assay, 50 μg of membrane protein were incubated with 0.4 nM [^125 l]-aminobenzyladenosine (ABA, custom synthesized by DuPont:NEN; specific activity=2200 Ci/mmol) in 50 mM Tris-HCl buffer, pH 7.4, containing 5 mM MgCl2 and 1 unit/mL adenosine deaminase in a total volume of 100 μL for 2 hours at room temperature. Membranes containing bound radioactivity were collected on Whatman GF/B filters using a Brandel Cell Harvester and washed 3 times with ice-cold 50 mM Tris-HCl buffer, pH 7.4. Radioactivity was quantified using a Beckman gamma counter. […] The specific binding was then calculated by subtracting this non-specific binding value from the total binding.
# [2] = tested on: A3 adenosine receptor (R226); details: cited from earlier work
# intact rabbit = experiment: Bradycardia and mean arterial pressure in the anesthetized rabbit, Example 2; details: I-APNEA 0.25 mg/kg
# [3] = tested on: intact, blood perfused rabbit heart; experiment: Infarct size in the intact anesthetized rabbit, 30 min ischemia and reperfusion, Example 2; details: I-APNEA 0.25 mg/kg iv; control 52±4.3%, PC 9±4.1%
# Protocol: In this study, the effect of the adenosine receptor agonist, I-APNEA, on infarct size in the anesthetized rabbit was compared to the protection observed with ischemic preconditioning (PC).
# New Zealand White rabbits (1.5-2.5 kg) were anaesthetized with pentobarbital sodium (40 mg/kg) administered via a catheter in a marginal ear vein. The animals were intubated with a pediatric cuffed endotracheal tube and ventilated with room air using a positive pressure respirator (Harvard Apparatus, Natick, Mass.). The heart was exposed in situ via an incision between the left 4th and 5th ribs, and a branch of the left coronary artery was isolated, using a 3-0 silk suture on RB-taper needle, for later ligation to induce 30 minutes of ischemia followed by 180 minutes of reperfusion. A catheter inserted into a femoral vein was used for administration of fluids and drugs. Infarct size was measured using the method described in the section entitled "Measurement of Infarct Size and Risk Area" in Example 1.
# All animals received 30 minutes of regional ischemia, induced by tightening the suture placed around the coronary artery. Following the 30 minutes of ischemia, the suture was loosened, and reperfusion was allowed for the ensuing 180 minutes. Control animals received only the 30 minutes of ischemia and 180 minutes of reperfusion (n=9). Ischemic preconditioning (PC) was induced by 5 minutes of occlusion of the coronary artery followed by 10 minutes of reperfusion before the 30 minutes of occlusion (n=7). In a separate group of rabbits, I-APNEA was delivered intravenously as a slow bolus injection (0.25 mg/kg), beginning 15 minutes prior to the 30 minutes occlusion (n=8). In two additional groups of rabbits, the effects of the A1-selective adenosine receptor blocker, DPCPX, were tested against the effects of PC (n=6) and I-APNEA (n=8). […] At the end of 120 minutes of reperfusion, all animals were killed by an overdose of pentobarbital, and risk area and infarct size were measured.
compound,measurement,setting,value
CCCn1c(=O)c2[nH]c(-c3ccc(/C=C/C(=O)O)cc3)nc2n(CCC)c1=O [BW A1433],Infarct size (of the risk area),rabbit heart,26.2±3.2%
"OC[C@H]1O[C@@H](n2cnc3c(NC4CCCC4)nc(Cl)nc32)[C@H](O)[C@@H]1O [CCPA, 2-chloro-N^6-cyclopentyladenosine]",Ischemic preconditioning effects,heart,beneficial ischemic preconditioning effects
"Nc1ccc(CNc2ncnc3c2ncn3[C@@H]2O[C@H](CO)[C@@H](O)[C@H]2O)cc1I [I-ABA, N^6-(4-amino-3-iodobenzyl)adenosine]",IC50,"[1]; A3K2 line cell membranes, 0.4 nM [125I]-ABA, read-out: IC50, displacement of [125I]ABA specific binding",2 nM
"Nc1ccc(CCNc2ncnc3c2ncn3[C@@H]2O[C@H](CO)[C@@H](O)[C@H]2O)cc1I [I-APNEA, N^6-2-(4-amino-3-iodophenyl)ethyladenosine]",Binding to R226,[2],bind
same,Mean arterial pressure,intact rabbit,fall in mean arterial pressure
same,Infarct size,[3],17±3.8%
"CCNC(=O)[C@H]1O[C@@H](n2cnc3c(N)ncnc32)[C@H](O)[C@@H]1O [NECA, 5'-N-ethylcarboxamidoadenosine]",Binding to R226,[2],bind
"C[C@H](Cc1ccccc1)Nc1ncnc2c1ncn2[C@@H]1O[C@H](CO)[C@@H](O)[C@H]1O [R-PIA, (R)-N-(2-phenyl-1-methylethyl)adenosine]",Ischemic preconditioning effects,heart,beneficial ischemic preconditioning effects
CCCn1c(=O)c2[nH]c(-c3ccc(OCC(=O)NCCN)cc3)nc2n(CCC)c1=O [XAC],Binding to R226,[2],not to bind
"Nc1ccc(CNc2ncnc3c2ncn3[C@@H]2O[C@H](CO)[C@@H](O)[C@H]2O)cc1[125I] [[^125 l]ABA, [^125 l]-aminobenzyladenosine]","Binding to human A3 receptors, affinity","[1]; radiolabel, A3K2 cells",high affinity
